Results on 1 compound are retold here after patent US20260137662A1, “CD11B AGONISTS FOR TREATMENT OF AUTOIMMUNE DISEASE” (Rush University Medical Center, priority 2022, published 2026).

For experiment [1], the system named is BMDMs from mice with global deletion of CD11b (KO). Put plainly: Biomarker secretion from IMQ-treated bone marrow derived macrophages of CD11b KO mice. It is filed as cell-based. As to conditions: CD11b KO cells, IMQ (20 ug/mL) and LA1 (20 uM) co-treatment, 4 hours. How it is done:
FIG. 7A illustrates levels of biomarker IL-6 secretion in bone marrow derived macrophages (BMDMs) from C57BL/6 wild type (WT) mice, mice with global deletion of CD11b (KO), or C57BL/6 mice expressing CD11b with a point mutation (KI), the macrophages treated for 4 hours with vehicle DMSO (UT), LA1 (20 uM), IMQ (20 ug/mL), or IMQ and LA1 co-treatment. Bars show mean with SD (N=3) (*P<0.05, **P<0.01, ***P<0.001, ****P<0.0001).
FIG. 7B illustrates levels of biomarker IL-1b secretion in bone marrow derived macrophages (BMDMs) from C57BL/6 wild type (WT) mice, mice with global deletion of CD11b (KO), or C57BL/6 mice expressing CD11b with a point mutation (KI), the macrophages treated for 4 hours with vehicle DMSO (UT), LA1 (20 uM), IMQ (20 ug/mL), or IMQ and LA1 co-treatment. Bars show mean with SD (N=3) (*P<0.05, **P<0.01, ***P<0.001, ****P<0.0001).
FIG. 7C illustrates levels of biomarker suPAR secretion in bone marrow derived macrophages (BMDMs) from C57BL/6 wild type (WT) mice, mice with global deletion of CD11b (KO), or C57BL/6 mice expressing CD11b with a point mutation (KI), the macrophages treated for 4 hours with vehicle DMSO (UT), LA1 (20 uM), IMQ (20 ug/mL), or IMQ and LA1 co-treatment. Bars show mean with SD (N=3) (*P<0.05, **P<0.01, ***P<0.001, ****P<0.0001).
FIG. 7D illustrates levels of biomarker IFNb secretion in bone marrow derived macrophages (BMDMs) from C57BL/6 wild type (WT) mice, mice with global deletion of CD11b (KO), or C57BL/6 mice expressing CD11b with a point mutation (KI), the macrophages treated for 4 hours with vehicle DMSO (UT), LA1 (20 uM), IMQ (20 ug/mL), or IMQ and LA1 co-treatment. Bars show mean with SD (N=3) (*P<0.05, **P<0.01, ***P<0.001, ****P<0.0001).
Bone marrow derived macrophages (BMDMs) from C57BL/6 wild type mice (WT), mice with global deletion of CD11b (KO), and C57BL/6 mice expressing CD11b with a point mutation (KI), as described previously (Martinez et al., 2020) were used to evaluate the effect of pharmacologic activation of CD11b by LA1 or genetic activation of CD11b on TLR-pathway dependent biomarkers. BMDMs from WT, KO, and KI mice were left untreated, treated with LA1, treated with IMQ, or co-treated with LA1 and IMQ and levels of biomarkers IL-1b, suPAR, IL-6 and IFN-b were measured 4 hours after treatment.

For experiment [2], the system named is TLR-stimulation dependent pro-inflammatory pathways. Put plainly: suPAR and TNFa secretion from myeloid (RAW) cells stimulated with TLR-stimulants or PMA (ELISA). The format is cell-based, murine. The following applies: co-treatment TLR-stimulant (LPS, PMA, Pam2CSK4, Pam3CSK4, IMQ) and LA1 (20 uM), 4 hours. As to the method:
FIG. 2A illustrates the levels of biomarker suPAR secretion from RAW cells after treatment with LPS (50ng/ml), PMA (0.1 ug/mL), Pam2CSK4 (0.1 ug/mL), Pam3CSK4 (0.1 ug/mL), Imiquimod (IMQ) (20 ug/mL), LA1 (20 uM), or co-treatments. Bars show mean with SD (N=3) (*P<0.05, **P<0.01, ***P<0.001, ****P<0.0001).
FIG. 2B illustrates the levels of biomarker (A) suPAR and (B) TNF-a secretion from RAW cells after treatment with LPS (50ng/ml), PMA (0.1 ug/mL), Pam2CSK4 (0.1 ug/mL), Pam3CSK4 (0.1 ug/mL), Imiquimod (IMQ) (20 ug/mL), LA1 (20 uM), or co-treatments. Bars show mean with SD (N=3) (*P<0.05, **P<0.01, ***P<0.001, ****P<0.0001).
The effect of LA1 on TLR-stimulation dependent pro-inflammatory pathways was studied by stimulating myeloid cells with different TLR-stimulants (lipopolysaccharide (LPS), Pam2CSK 4, imiquimod (IMQ)) or with phorbol 12-myristate 13-acetate (PMA) and co-treating with LA1. The levels of suPAR (pg/mL) and TNFa (pg/mL) in cell supernatant were measured 4 hours after treatment using ELISA. […] Relative gene expression was also assessed in myeloid cells treated with Poly(I:C), a known toll-like receptor (TLR) agonist, and co-treated with LA1.
Background: In an ELISA, binding on a coated surface is turned into a signal by an enzyme label.

Each structure is given as a SMILES string.

Regarding `O=C(O)c1ccc(-c2ccc(/C=C3\SC(=S)N(Cc4ccccc4)C3=O)o2)cc1` [LA1, (Z)-4-(5-((3-benzyl-4-oxo-2-thioxothiazolidin-5-ylidene)methyl)furan-2-yl)benzoic acid], in experiment [1], the “level of IFN-b in cell supernatant” value is recorded as “no effect”, the “level of IL-1b in cell supernatant” value is “no effect”, the “level of IL-6 in cell supernatant” value was “no effect” and the “level of suPAR in cell supernatant” value was “no effect”. In experiment [2], the “levels of biomarker TNFa in cell supernatant” value is reported as “significantly reduced” and the “levels of biomarker suPAR in cell supernatant” value is “significantly reduced”.
